Results: patent publication US20230348495A1, “A COMPOUND HAVING INHIBITORY ACTIVITY AGAINST KRAS G12D MUTATION” (TAIHO PHARMACEUTICAL CO., LTD., priority 2019, published 2023)

What was measured:
KRAS G12D = KRAS G12D (Homo sapiens (Human), UniProt P01116, G12D); experiment: Inhibitory activity on KRAS G12D nucleotide (GDP-GTP) exchange reaction in vitro (SOS1-dependent, BODIPY FL GDP); format: biochemical; settings: BODIPY FL GDP-bound KRAS G12D, compound 25° C. 1 hour, then SOS1 and GMPPNP 30 minutes
Text: Test Example 1: Evaluation of inhibitory activity of compounds on KRAS G12D nucleotide (GDP-GTP) exchange reaction in vitro
Recombinant KRAS G12D (conjugated N-terminus His6-tag, TEV protease cleavage site and KRAS G12D residues 1-169 (SEQ ID NO: 1), prepared by the method described as below) and cleaved recombinant SOS1 (residues 564-1049(SEQ ID NO: 2), prepared by the method as below) proteins were expressed in E. coli and purified by affinity chromatography.
To prepare the recombinant KRAS G12D, the codon-optimized DNA sequence for the recombinant KRAS G12D (conjugated N-terminus His6-tag, TEV protease cleavage site and KRAS G12D residues 1-169 (SEQ ID NO: 3))was synthesized by GeneArt Technology (Life Technologies, Carlsbad, CA, US). The construct was subcloned into the expression vector pET28a and transformed into Escherichia coli BL21 (DE3) strains (Novagen, Madison, WI, US).
The transformed strain was cultivated in 2 L Luria Broth medium with 25 μg/mL kanamycin at a temperature of 37° C. to a density of 0.6 (OD600), then induced for expression with […] IPTG and further cultivated for 4 h. The cell pellet was resuspended in ice-cold lysis buffer containing 50 mM Tris-HCl (pH 7.5), 200 mM NaCl, and 100 μM TCEP (tris(2-carboxyethyl)phosphine).
After sonication, the disrupted debris was removed by centrifugation. The supernatant was applied on to Ni-NTA affinity gels, and the recombinant human KRAS (G12D) eluted fraction was collected. The buffer of the collected fraction was exchanged to the buffer containing 50 mM Tris-HCl (pH 7.5), 200 mM NaCl, 10% Glycerol, and 5 mM DTT by PD-10 column (GE-Healthcare, Chicago, IL, US).
To prepare the cleaved recombinant SOS1, the codon optimized DNA sequences for the recombinant SOS1 (residues 564-1049 with a conjugated N-terminus His6-tag and TEV protease cleavage site (SEQ ID NO: 4)) was synthesized by GeneArt Technology (Life Technologies). The construct was subcloned into the expression vector pET28a and transformed into Escherichia coli BL21 (DE3) strains (Novagen, Madison, WI, USA).
The transformed strain was cultivated in 2 L Terrific Broth medium with 25 μg/mL kanamycin at a temperature of 37° C. to a density of 0.8 (OD600), then shifted to a temperature of 16° C., induced for expression with […] IPTG, and further cultivated for 16 h. The cell pellet was resuspended in ice-cold lysis buffer containing 50 mM Tris-HCl (pH 7.5), 200 mM NaCl, and 100 μM TCEP.
After sonication, the disrupted debris was removed by centrifugation. The supernatant was applied on to Ni-NTA affinity gels, and the recombinant human SOS1 eluted fraction was collected. Then, His6-tagged TEV protease was added to the collected fraction, dialyzed with the ice-cold lysis buffer for 16 h at a temperature of 4° C., and applied on to Ni-NTA affinity gels. The flow-through fraction containing the tag-cleavaged recombinant human SOS1 was collected. The buffer of the collected fraction was exchanged to the buffer containing 50 mM Tris-HCl (pH 7.5), 200 mM NaCl, 10% Glycerol, and 5 mM DTT by PD-10 column (GE-Healthcare).
To prepare BODIPY FL (fluorescent dye) GDP-bound KRAS G12D protein, 50 μM KRAS G12D protein was incubated with 0.5 mM BODIPY FL GDP in a loading buffer (20 mM Tris-HCl (pH 7.5), 50 mM NaCl, 1 mM DTT and 2.5 mM EDTA) for 1 hour on ice. After the incubation, MgCl2 was added to a final concentration of 10 mM, followed by incubation at room temperature for 30 minutes.
The mixture was allowed to pass through a NAP-5 column to remove free nucleotides and purified BODIPY FL GDP-bound KRAS G12D protein was used for compound evaluation.
For the measurement of the inhibitory activity of compounds on GDP-GTP exchange rate of recombinant KRAS G12D, BODIPY FL GDP-bound KRAS G12D protein was incubated with various concentrations of compound in a reaction buffer (20 mM Tris-HCl (pH 7.5), 100 mM NaCl, 1 mM MgCl2, 2 mM DTT, 0.1% Tween 20) at 25° C. for 1 hour. […]

[1] = system: KRAS-G12D mutant cell line (A-427); experiment: Growth inhibition activity on KRAS-G12D mutant cell line (A-427), CellTiter-Glo 3D; format: cell-based; settings: Homo sapiens, 72 h, A-427 cells, 3-day culture with compound, read-out: A427 CTX IC50
Description: Test Example 2: A measurement test of growth inhibition activity on KRAS-G12D mutant cell line (A-427) (in vitro) A-427 cells (ATCC, Cat #: HTB-53), which are a KRAS-G12D mutant human lung cancer cell line, were suspended in a 10% fetal bovine serum-containing E-MEM medium (manufactured by Fujifilm Wako Pure Chemical Corporation). The cell suspension was seeded into each well of a 384-well U bottom microplate and cultured in an incubator containing 5% CO2 gas at 37° C. for 1 day.
The compound of the present invention was dissolved in DMSO, and the test compound was diluted with DMSO to give a concentration 500 times the final concentration. The solution of the test compound in DMSO was diluted with the medium used for suspending cells and added to each well of the cell-culture plate to give a DMSO final concentration of 0.2%, followed by culture in an incubator containing 5% CO2 gas at 37° C. for another 3 days. The cell count after a 3-day culture in the presence of the compound was measured using CellTiter-Glo 3D Reagent (manufactured by Promega Corporation).
All wells were added with CellTiter-Glo 3D Reagent and mixed for 10 minutes. 30 minutes after mixing, luminescence was measured by a plate reader. The growth inhibition rate was calculated from the following equation, and the concentration of the test compound at which 50% inhibition was achieved (IC50 (μM)) was determined.
Growth Inhibition Rate(%)=(C−T)/(C)×100
T: the emission intensity in a well into which a test compound was added.
C: the emission intensity in a well into which a test compound was not added.

KRAS G12D, sequence (P01116 other isoform, or with tags, fused parts or gaps G12D (already in the parent)): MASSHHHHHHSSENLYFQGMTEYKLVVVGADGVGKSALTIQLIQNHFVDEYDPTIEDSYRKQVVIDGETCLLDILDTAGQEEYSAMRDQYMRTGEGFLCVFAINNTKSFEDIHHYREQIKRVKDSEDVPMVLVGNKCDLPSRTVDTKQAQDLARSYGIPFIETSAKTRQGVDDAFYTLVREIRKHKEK

Compound	IC50 (KRAS G12D)	IC50 [1]
CN(C)CC1(COc2nc3c(c(N4CC5CCC(C4)N5)n2)CCN(c2cc(O)cc4cccc(Br)c24)C3)CC1(C)C (stereo not shown) [Example 30, 4-(4-(3,8-diazabicyclo[3.2.1]octan-3-yl)-2-((1-((dimethylamino)methyl)-2,2-dimethylcyclopropyl)methoxy)-5,8-dihydropyrido[3,4-d]pyrimidin-7(6H)-yl)-5-bromonaphthalen-2-ol]	0.0117 µM	1.38 µM
CN1CCC[C@H]1COc1nc2c(c(N3CC4CCC(C3)N4)n1)CCN(c1cc(O)cc3cccc(Br)c13)C2 [Example 31, 4-(4-(3,8-diazabicyclo[3.2.1]octan-3-yl)-2-(((S)-1-methylpyrrolidin-2-yl)methoxy)-5,8-dihydropyrido[3,4-d]pyrimidin-7(6H)-yl)-5-bromonaphthalen-2-ol]	0.0177 µM	1.95 µM
CO[C@@H]1C[C@@H](COc2nc3c(c(N4CC5CCC(C4)N5)n2)CCN(c2cc(O)cc4cccc(Br)c24)C3)N(C)C1 [Example 32, 4-(4-(3,8-diazabicyclo[3.2.1]octan-3-yl)-2-(((2S,4R)-4-methoxy-1-methylpyrrolidin-2-yl)methoxy)-5,8-dihydropyrido[3,4-d]pyrimidin-7(6H)-yl)-5-bromonaphthalen-2-ol]	0.0032 µM	1.08 µM
C#Cc1cccc2cc(O)cc(C3Cc4nc(OCC5(CN6CCOCC6)CC5)nc(N5CC6CCC(C5)N6)c4CO3)c12 (stereo not shown) [Example 33, 4-(4-(3,8-diazabicyclo[3.2.1]octan-3-yl)-2-((1-(morpholinomethyl)cyclopropyl)methoxy)-7,8-dihydro-5H-pyrano[4,3-d]pyrimidin-7-yl)-5-ethynylnaphthalen-2-ol]	0.0113 µM	1.27 µM
C=Cc1cccc2cc(O)cc(C(=O)N3Cc4nc(OCC5(CN6CC[C@@H](F)C6)CC5)nc(N5CC6CCC(C5)N6)c4C3)c12 [Example 34, (4-(3,8-diazabicyclo[3.2.1]octan-3-yl)-2-((1-(((R)-3-fluoropyrrolidin-1-yl)methyl)cyclopropyl)methoxy)-5,7-dihydro-6H-pyrrolo[3,4-d]pyrimidin-6-yl) (3-hydroxy-8-vinylnaphthalen-1-yl)methanone]	0.0141 µM	7.14 µM
C=Cc1cccc2cc(O)cc(C(=O)N3Cc4nc(OCC5(CN6CCOCC6)CC5)nc(N5CC6CCC(C5)N6)c4C3)c12 [Example 35, (4-(3,8-diazabicyclo[3.2.1]octan-3-yl)-2-((1-(morpholinomethyl)cyclopropyl)methoxy)-5,7-dihydro-6H-pyrrolo[3,4-d]pyrimidin-6-yl) (3-hydroxy-8-vinylnaphthalen-1-yl) methanone]	0.0135 µM	8.84 µM
C#Cc1cccc2cc(N)nc(N3CCc4c(nc(OCC5(CN(C)C)CC5)nc4N4CC5CCC(C4)N5)C3)c12 [Example 36, 1-(4-(3,8-diazabicyclo[3.2.1]octan-3-yl)-2-((1-((dimethylamino)methyl)cyclopropyl)methoxy)-5,8-dihydropyrido[3,4-d]pyrimidin-7(6H)-yl)-8-ethynylisoquinolin-3-amine]	0.0274 µM	> 10 µM
CN(C)CC1(COc2nc3c(c(N4CC5CCC(C4)N5)n2)COC(c2cc(O)cc4cccc(Br)c24)C3)CC1 (stereo not shown) [Example 37, 4-(4-(3,8-diazabicyclo[3.2.1]octan-3-yl)-2-((1-((dimethylamino)methyl)cyclopropyl)methoxy)-7,8-dihydro-5H-pyrano[4,3-d]pyrimidin-7-yl)-5-bromonaphthalen-2-ol]	0.0096 µM	2.94 µM
